This is an account of results in publication PMC12801355, “Peptide Amphiphiles Hitchhike on Endogenous Biomolecules for Enhanced Cancer Imaging and Therapy” (Advanced Materials (Deerfield Beach, Fla.), 2025).

A short description of data set [1]: PA fluorescence in liver homogenates. It is filed as in vitro ADME. The settings on record: ICG conjugated, 0.1 to 10 µM spiked into mouse liver homogenate, IVIS. How it is done: Liver samples (6.2 g total weight) collected from healthy BALB/cJ mice were placed in a gentleMACS M Tube containing 2 mL of PBS. The M Tube was fitted with a 600 µm mesh strainer, and homogenization was performed using a gentleMACS Dissociator by running a one‐minute program at 1260 rotations per round (rpr) for five cycles. ICG conjugated SA‐E and SA‐K were then spiked into the liver homogenates in a 96‐well plate at final concentrations of 0, 0.1, 0.5, 2.0, 5.0, and 10 µM. Fluorescence signals from the homogenates were measured using an IVIS (PerkinElmer).

Another data set relates to RG2 xenografts. As to the kind of experiment: Flow cytometry of mCherry expressing RG2 xenografts. The note with it: Cy5 SA‐E 50 nmol IV. Format: in vivo, mouse. The method, then: RG2‐mCherry cells (100 µL sterile DMEM, 0.5 × 10^7 cells mL^−1) were implanted subcutaneously in nude mice and allowed to grow to 0.5–1 cm. Mice were then injected intravenously with the Cy5 labeled SA‐E (100 µL, 0.5 mM). 2 days later, tumors were extracted, minced, and dissociated using 1 mg mL^−1 solution collagenase/dispase (Roche, 10269638001 and 11097113001) for 45 min at 37 °C. The solution was broken down with pipetting and filtered through a 70 µm filter. The single‐cell solution was suspended in sterile PBS (10 mM, pH 7.4) and then incubated with 1:50 dilution of AlexaFluor 488 Rat Anti‐Mouse CD45 antibody (BD Pharminogen, 567377) for 45 min at room temperature. Finally, the cells were pelleted and, washed and incubated with 5 µM Calcein Blue, AM (Invitrogen, C1429) for 20 min. The cells were then analyzed in BD FACSymphony in the DAPI channel (355 nm laser, 450/50 filter), FITC channel (488 nm laser, 515/30 filter), Cy3 channel (561 nm laser, 586/15 filter), and Cy5 channel (628 nm laser, 670/30 filter). Cells in culture were used to establish size and mCherry intensity. […] Finally, three experimental mice were analyzed in all channels using the gating established from the controls. Gating was performed in FlowJo software.
(In general: A flow cytometer gives signals particle by particle.)

Another data set is described as follows: Toxicity in mice. Format: in vivo, mouse. The note with it: wild type mice, 200 nmol IV, 5 mice. The method, then: Wild type mice were injected intravenously with ICG conjugated SA‐E at 4 times the dose used previously for imaging (100 µL, 2 mM). 1 day later, blood was removed via cardiac puncture, placed into an EDTA tube, and then centrifuged at 1500 g for 10 min, then 2500 g for 10 min to obtain plasma. The plasma was analyzed for Aspartate Aminotransferase activity (AST) (Abcam, AB105135) and creatinine (Crystal Chem, 80350) following the manufacturer's protocol. For complete blood counts, whole blood (10 µL) was mixed with 2 mM EDTA (10 µL) and analyzed using the HemaVet 950S (Drew Scientific).

In data set [2] the test system is small intestinal adenomas and colon polyps. As to the kind of experiment: Detection of intestinal lesions in APC^min mice. It is filed as in vivo, mouse. The method, then: For tumor accumulation studies in subcutaneous (HCT‐116, A375, TRAMP‐C2, MC38, LLC1, RG2, PDX cell lines, wild type or SR‐B1 ‐/‐ TRAMP‐C2, and wild type or LDL‐R ‐/‐ HeLa), intradermal (A375), or fat pad (4T1 and MCF‐7) tumors, cells were implanted as described above. When the tumors reached a size around ≈0.3–1 cm, mice were injected intravenously with 100 µL of ICG conjugated PAs (in PBS, 0.5 mM) or free ICG (in PBS, 0.5 mM). After probe injections, mice were imaged using the IVIS Spectrum (PerkinElmer) with excitation and emission wavelengths of 745 and 820 nm, respectively, at the specified time points. Living Image (PerkinElmer) software was used for all analyses. For MMTV mice experiments, mice were injected intravenously weekly with SA‐E (100 µL PBS, 0.5 mM) between 71 and 85 days of age and imaged 2 days later in the IVIS. […] SA‐E was injected intravenously (100 µL PBS, 0.5 mM), 2 days later the intestinal tissue was harvested, washed, and analyzed in the IVIS for ICG.

The nature of data set [3]: TEM imaging of PA nanostructures. It is filed as physicochemical. The note with it: ICG conjugated PA, 200 µM in ultrapure water, uranyl acetate negative stain. How it is done: For TEM imaging, PAs conjugated with ICG, Cy5 or MMAE were dissolved in ultrapure water at a concentration of 200 µM. Carbonfilm 200 copper mesh TEM grids were glow‐discharged first. Then, PA solutions (15 µL) were placed on the grids, incubated for 10 min before blotting, and air‐dried. 15 µL of ultrapure water was applied to wash the grid for 3 min. After incubation, the water was removed by blotting from the edge of the grid. For negative staining of the samples, a 0.4% uranyl acetate solution was prepared in ultrapure water and filtered using a 0.1 µm syringe filter. 15 µL of filtered uranyl acetate solution was applied to the grid and incubated for 5 min. Finally, TEM grids were blotted to remove excess stain and dried at room temperature. TEM imaging was performed using a Tecnai or Talos microscope (FEI).

Data set [4] in a line: Blood circulation in mice. Format: in vivo, mouse. The note with it: wild type mice, 50 nmol IV. How it is done:
For blood circulation experiments, Balb/c mice were injected with 100 µL of ICG conjugated PAs or No‐SA, or free ICG (0.5 mM). Then, blood was drawn via the saphenous vein or retro‐orbitally at different time points (immediately after injection to 1 day). […] Blood from wild type mice was collected to prepare calibration curves for each probe. To each 18 µL aliquot of blood, 2 µL of probe stock solution (0.5 mM) was added and incubated at 37 °C for 1 h. The spiked samples were then serially diluted in blood between 50 and 0.1 µM. For fluorescence measurement, 2 µL of each diluted sample was further diluted into 98 µL of PBS, and ICG fluorescence was measured using a TECAN plate reader.

Structures are written as SMILES. Where a SMILES comes first, the peptide text is derived from it. The star is where a group is joined. Palmitoyl = CCCCCCCCCCCCCCCC(=O)*

Regarding `CCCCCCCCCCCCCCCC(=O)NCC(=O)NCC(=O)NCC(=O)N[C@@H](Cc1c[nH]cn1)C(=O)N[C@@H](C)C(=O)N[C@@H](C)C(=O)N[C@@H](CC(N)=O)C(=O)NCC(=O)N[C@@H](CCC(=O)O)C(=O)N[C@@H](CCC(=O)O)C(=O)N[C@@H](CS)C(=O)N[C@@H](CCC(=O)O)C(=O)O` [SA‐E] (Palmitoyl-GGGHAANGEECE-OH), the “fluorescence in liver homogenates, SA‐E versus SA‐K (disassembly)” value in data set [1] is “almost identical fluorescence intensity”. For the same molecule, in the data set with RG2 xenografts (2 days), the “CD45 and mCherry negative cells (tumor stroma) containing Cy5” value is 35%–40; the “CD45 positive only (white blood cells) containing Cy5” value was 35%–40; the “enrichment in cancer cells compared to other cells in the tumor” value is given as “approximately two‐fold”. Moreover, the “mCherry expressing cancer cells containing Cy5” value with RG2 xenografts (tumors harvested 2 days later, three mice) is reported as “≈ 70%”. Moreover, in “Toxicity in mice” (1 day), the “Aspartate transferase (AST) versus control” value is “no difference” and the Creatinine versus control entry was “no difference”. Also, the “complete blood counts (CBC) versus control” value in the data set “Toxicity in mice” (blood 1 day after injection) was “no difference”. Moreover, in data set [2] (3 APC^min mice), the colon polyps detected is given as 4/4 and the “small intestinal adenomas detected” value was 71/71. Moreover, in data set [2] (mouse 1, of 2 lesions), the “Colon, SA-E Negative lesions” value worked out at 0 and the “Colon, SA-E Positive lesions” value is listed as 2. For the same molecule, in data set [2] (mouse 1, of 15 lesions), the “Small Intestine, SA-E Negative lesions” value is 0 and the “Small Intestine, SA-E Positive lesions” value worked out at 15. In addition, in data set [2] (mouse 2, of 1 lesion), the “Colon, SA-E Negative lesions” value is on record as 0 and the “Colon, SA-E Positive lesions” value amounted to 1. Further, in data set [2] (mouse 2, of 22 lesions), the “Small Intestine, SA-E Negative lesions” value is listed as 0 and the “Small Intestine, SA-E Positive lesions” value came to 22. In data set [2] (mouse 3, of 1 lesion), the “Colon, SA-E Negative lesions” value was found to be 0 and the “Colon, SA-E Positive lesions” value is on record as 1. In addition, in data set [2] (mouse 3, of 34 lesions), the “Small Intestine, SA-E Negative lesions” value is given as 0 and the “Small Intestine, SA-E Positive lesions” value was 34. For the same molecule, in data set [3], the “size of spherical micelles (TEM)” value is given as 5–10 nm. In addition, in data set [4], the “AUC of blood circulation plot relative to SA‐K” value is reported as 2.1 fold.
